# Source: US6368803B1, “Detection of nucleic acids by target-catalyzed formation” (Dade Behring Inc., priority 1994, dated 2002)
# Several values for one entry are separate records, joined by “and”; a condition that tells them apart may be missing. Equal entries are not always repeated. {32P} = terminal 32P phosphate radiolabel
# How the values were obtained:
# [1] = test system: single stranded target DNA (M13mp19); assay: Target-catalyzed isothermal 5'-nuclease cleavage of 5'-32P-labeled probe; fold amplification by gel electrophoresis and liquid scintillation; type: biochemical
# Description: Probe 2, the unlabeled probe, was designed to anneal to the target DNA 3' to, and contiguous with, the site at which the labeled probe annealed to the target DNA. […] However, good results were obtained in the absence of DATP. The reaction mixture was incubated at 72° C. and accumulation of product, a mononucleotide, namely, 5'^32P-C-OH, was determined by visualization using autoradiography following polyacrylamide gel electrophoresis. The fold of amplification was determined by liquid scintillation spectrometry of excised reaction products. A 10^5 fold amplification was observed. […] The product of this reaction was a dinucleotide, namely, 5'^32P-TC-OH (SEQ ID NO:4), that represented a 10^5-fold amplification. The above reaction protocol was repeated with different temperatures and different concentrations of reagents. All of the reactions, including those mentioned above, were carried out for a period of 3 hours. The following table summarizes the reagents and reaction parameters and the results obtained during the optimization procedure. The reaction protocol described in Example 1 was repeated using the following probes in place of Probe 1 or Probe 3: […]
# [2] = test system: Probe 5 hybridized to target DNA (M13mp19); assay: Cleavage of Probe 5 on target DNA using six different DNA polymerases with 5'-nuclease activity; type: biochemical; details: 2×10^9 target molecules; Probe 5 1 micromolar; three hours; 72 °C; 20-nucleotide fragment
# Description: Probe 2, the unlabeled probe, was designed to anneal to the target DNA 3' to, and contiguous with, the site at which the labeled probe annealed to the target DNA. […] However, good results were obtained in the absence of DATP. The reaction protocol described in Example 1 was repeated using 2×10^9 target molecules and Probe 5 (see Example 2) at a concentration of 1 micromolar in place of Probe 1. The reactions were conducted for three hours at a temperature of 72° C. using one of six different DNA polymerases, namely, AmpliTaq DNA polymerase, […] polymerase (Epicentre), Tfl(TM) DNA polymerase (Epicentre), Ultra Therm(TM) DNA polymerase (Bio/Can Scientific), […] polymerase (Amresco) and Panozyme(TM) DNA polymerase. The product of the reaction was a 20-nucleotide fragment (see Example 2). The following is a summary of the results obtained.
# [3] = probe 1 μM, target number 10^9, Taq 7.5 units, 72 °C, increase MgCl2 (7.5 mM), 3 hours
# [4] = probe 10 uM, 2×10^8 target molecules, Probe 2 1 uM, 7.5 units AmpliTaq, 72 °C, 7.5 mM MgCl2, 100 uM dATP, 3 hours
# [5] = probe 10 μM, target number 10^8, Taq 7.5 units, 74 °C, increase MgCl2 (7.5 mM), 3 hours
# [6] = probe 10 μM, target number 10^9, Taq 7.5 units, 74 °C, increase MgCl2 (7.5 mM), 3 hours
compound,measurement,setting,value
"5′ CGT-GGG-AAC-AAA-CGG-CGG-AT3′ (CGTGGGAACAAACGGCGGAT; DNA, 5' {32P}, backbone and methylation of C not given here) [Probe 1, 20-base oligonucleotide fully complementary to the target DNA with label on the 5′-nucleotide]",Fold amplification,"[1]; probe 1 μM, target number 10^8, Taq 7.5 units, 72 °C, add dATP (100 μM), 3 hours",1.0 × 10^4 fold
same,Fold amplification,"[1]; probe 1 μM, target number 10^9, Taq 2.5 units, 72 °C, buffer as described, 1.5 mM MgCl2, 3 hours",1.8 × 10^3 fold
same,Fold amplification,"[1]; probe 1 μM, target number 10^9, Taq 7.5 units, 72 °C, add dATP (100 μM), 3 hours",1.4 × 10^3 fold
same,Fold amplification,"[1]; probe 1 μM, target number 10^9, Taq 7.5 units, 72 °C, buffer as described, 1.5 mM MgCl2, 3 hours",2.0 × 10^3 fold
same,Fold amplification,[1]; [3],9.7 × 10^3 fold and 9.3 × 10^3 fold
same,Fold amplification,"[1]; probe 1 μM, target number 10^10, Taq 2.5 units, 72 °C, buffer as described, 1.5 mM MgCl2, 3 hours",8.8 × 10^2 fold
same,Fold amplification,[1]; [4],10^5 fold
same,Fold amplification,"[1]; probe 10 μM, target number 10^8, Taq 7.5 units, 72 °C, add dATP (100 μM), 3 hours",3.6 × 10^4 fold
same,Fold amplification,[1]; [5],1.1 × 10^5 fold
same,Fold amplification,"[1]; probe 10 μM, target number 10^9, Taq 7.5 units, 72 °C, add dATP (100 μM), 3 hours",1.4 × 10^4 fold
same,Fold amplification,[1]; [6],3.7 × 10^4 fold
"5′GAT-TAG-GAT-TAG-GAT-TAG-TCG-TGG-GAA-CAA-ACG-GCG-GAT3′ (GATTAGGATTAGGATTAGTCGTGGGAACAAACGGCGGAT; DNA, 5' {32P}, backbone and methylation of C not given here) [Probe 5, 39 nucleotides with 19 nucleotides at its 5′-end not complementary to the target DNA]",Fold amplification,"[1]; Example 1 protocol, probe concentration not given, product intact 20 nucleotide fragment",1.5×10^4 fold
"5′TCG-TGG-GAA-CAA-ACG-GCG-GAT3′ (TCGTGGGAACAAACGGCGGAT; DNA, 5' {32P}, backbone and methylation of C not given here) [Probe 3, 21 nucleotides withone base at the 5′-end not complementary to the target DNA]",Fold amplification,"[1]; probe 1 μM, target number 10^8, Taq 7.5 units, 72 °C, increase MgCl2 (7.5 mM), 3 hours",2.6 × 10^4 fold
same,Fold amplification,[1]; [3],9.9 × 10^3 fold
same,Fold amplification,[1]; [4],10^5 fold
same,Fold amplification,[1]; [5],1.0 × 10^5 fold
same,Fold amplification,[1]; [6],4.6 × 10^4 fold
5′TTA-TTT-CGT-GGG-AAC-AAA-CGG-CGG-AT3′ [Probe 4],Fold amplification,"[1]; Example 1 protocol, probe 1 micromolar, product intact seven nucleotide fragment",1.5×10^4 fold
"Nc1ncnc2c1ncn2[C@H]1C[C@H](O)[C@@H](COP(=O)(O)OP(=O)(O)OP(=O)(O)O)O1 [dATP, reference compound]",effect on rate of cleavage by the polymerase,"[1]; 100 uM in buffer, AmpliTaq DNA polymerase",enhance the rate of cleavage
AmpliTaq: Taq DNA polymerase from Perkin-Elmer Corporation with 5′-nuclease activity,Fragment (picomoles),[2],32 picomoles
